Columns and labels:
FAST [1] = biological target: T1, FAST (Halorhodospira halophila, UniProt P16113, C69G/D97P/F96I/M100R/Q99S/T101G/T95M/Y94W/Y98T); assay: Spectroscopic properties of FAST:fluorogen complexes in PBS pH 7.4 (absorption, emission, quantum yield); format: physicochemical; conditions: for Brightness = ε × φ / ε, molar absorption coefficient at λ abs / λ abs, wavelength of maximal absorption / λ em, wavelength of maximal emission / φ, fluorescence quantum yield / F bound/F unbound, fluorescence activation upon FAST binding / Δλ abs = λ abs,bound – λ abs,unbound, absorption red-shift upon FAST binding: PBS pH 7.4
T1 construct: His-tag; made in house; host or cells: Rosetta(DE3)pLysS E. coli
Procedure: (§1) The UV/Vis absorption spectra were recorded with 1 cm × 1 cm quartz cuvettes (Hellma) on a diode array UV/Vis spectrophotometer (Evolution array, Thermo Scientific). The corrected fluorescence spectra upon one-photon excitation were recorded with a Photon Technology International QuantaMaster QM-1 spectrofluorimeter (PTI, Monmouth Junction, NJ) equipped with a Peltier cell holder (TLC50, Quantum Northwest, Shoreline, WA). The overall emission quantum yields after one-photon excitation φ were determined as previously described.[14]

FAST [2] = biological target: T1, FAST; assay: Affinity constants by spectrofluorometric titration of FAST with fluorogen; format: binding
Procedure: as §1

[3] = Physico-chemical properties of free fluorogens in aqueous solutions; format: physicochemical; conditions: free fluorogen; for pKa: aqueous solution, read-out: pKA, acidity constant
Procedure: as §1, with “pH measurements were performed on a standard pH meter PHM210 Radiometer Analytical (calibrated with aqueous buffers at pH 4 and 7 or 10) with a Crison 5208 Electrode (Barcelona, Spain). The UV/Vis” for “The UV/Vis”
HBR-3,5DOM in aqueous solutions. Abbreviations are as follows : pKA, acidity constant ;
λabs,neutral, wavelength of maximal absorption of the protonated state; λabs,anionic, wavelength of
maximal absorption of the anionic state.
Fluorogen pKA λabs,neutral (nm) λabs,anionic (nm)

HeLa cells = assay: LIVE/DEAD viability/cytotoxicity assay; format: cell-based; conditions: 5 µM, 24 h, calceinAM and EthD1
Procedure: The HeLa cells were treated with DMEM media containing the fluorogens at the indicated concentrations for the indicated times. The cell viability was evaluated by fluorescence microscopy using the LIVE/DEAD® viability/cytotoxicity assay kit (Molecular Probes, Life Technologies) following the manufacturer’s protocol.
Figure S2. Viability assay of HeLa cells incubated for 24 h with solutions of HBR-3,5DM, HBR-3OM and HBR-3,5DOM at 5 µM. Cell viability was tested by using calceinAM and EthD1 (LIVE/DEAD® viability/cytotoxicity assay kit). CalceinAM is a cell-permeant profluorophore cleaved by intracellular esterases releasing the green fluorescent polyanionic calcein in live cells. EthD1 (Ethidium homodimer 1) is a non cell-permeant nucleic acid red fluorescent stain that enters only cells with damaged membranes and undergoes a fluorescence enhancement upon binding to nucleic acids, thereby producing a bright red fluorescence in dead cells. Control experiments with HeLa cells non-incubated with dye (A) or incubated for 30 min with 1% hydrogen peroxyde (B) are shown. Cell fluorescence was evaluated by confocal microscopy.
3OM and HBR-3,5DOM are non-toxic for HeLa cells at the concentrations used for imaging.
(1 picture or pasted object on this page, not shown here)

[4] = FAST:fluorogen complex, listed as FAST:HBR-3OM
[5] = FAST:fluorogen complex, listed as FAST:HBR-3OE
[6] = FAST:fluorogen complex, listed as FAST:HBR-2,5DM
[7] = FAST:fluorogen complex, listed as FAST:HBR-3,5DM

T1 sequence (P16113 whole entry C69G/Y94W/T95M/F96I/D97P/Y98T/Q99S/M100R/T101G): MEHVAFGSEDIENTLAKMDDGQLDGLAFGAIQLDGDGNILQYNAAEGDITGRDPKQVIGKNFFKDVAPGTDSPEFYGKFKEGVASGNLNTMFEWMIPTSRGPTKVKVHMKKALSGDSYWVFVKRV

SMILES | Brightness = ε × φ (FAST [1]; FAST:fluorogen complex) | ε, molar absorption coefficient at λ abs (FAST [1]; FAST:fluorogen complex) [mM^–1 cm^–1] | φ, fluorescence quantum yield (FAST [1]; FAST:fluorogen complex) [%] | F bound/F unbound, fluorescence activation upon FAST binding (FAST [1]) | Δλ abs = λ abs,bound – λ abs,unbound, absorption red-shift upon FAST binding (FAST [1]) [nm] | Kd (FAST [2]) [nM] | pKa [3] | λabs,anionic, wavelength of maximal absorption of the anionic state [3] [nm] | λabs,neutral, wavelength of maximal absorption of the protonated state [3] [nm] | toxicity for HeLa cells (cell viability) (HeLa cells) | red-shifted absorption relative to FAST:HMBR (FAST [1]; FAST:fluorogen complex) | red-shifted emission relative to FAST:HMBR (FAST [1]; FAST:fluorogen complex) | other results
CCc1cc(/C=C2\SC(=S)NC2=O)ccc1O [HBR-3E, (Z)-5-(3-Ethyl-4-hydroxybenzylidene)-2-thioxothiazolidin-4-one] | 6500 | 50 | 13 | 300 | 81 | 80 | – | – | – | – | – | – | λ abs, wavelength of maximal absorption (FAST [1]; FAST:fluorogen complex): 481 nm; λ em, wavelength of maximal emission (FAST [1]; FAST:fluorogen complex): 543 nm
COc1cc(/C=C2\SC(=S)NC2=O)ccc1O [HBR-3OM, (Z)-5-(4-Hydroxy-3-methoxybenzylidene)-2-thioxo-1,3-thiazolidin-4-one] | 14 400 | 40 | 36 | 350 | 91 | 310 | 8.3 | 468 | 403 | non-toxic | 15–20 nm | 10–20 nm | λ abs, wavelength of maximal absorption (FAST [1]; [4]): 494 nm; λ em, wavelength of maximal emission (FAST [1]; [4]): 561 nm
CCOc1cc(/C=C2\SC(=S)NC2=O)ccc1O [HBR-3OE, (Z)-5-(3-Ethoxy-4-hydroxybenzylidene)-2-thioxothiazolidin-4-one] | 7000 | 41 | 17 | 230 | 94 | 270 | – | – | – | – | 15–20 nm | 10–20 nm | λ abs, wavelength of maximal absorption (FAST [1]; [5]): 497 nm; λ em, wavelength of maximal emission (FAST [1]; [5]): 562 nm
Cc1cc(/C=C2\SC(=S)NC2=O)c(C)cc1O [HBR-2,5DM, (Z)-5-(4-Hydroxy-2,5-dimethylbenzylidene)-2-thioxo-1,3-thiazolidin-4-one] | 14 500 | 50 | 29 | 430 | 88 | 8 | 8.7 | 472 | 406 | – | 15–20 nm | 10–20 nm | λ abs, wavelength of maximal absorption (FAST [1]; [6]): 494 nm; λ em, wavelength of maximal emission (FAST [1]; [6]): 552 nm
Cc1cc(/C=C2\SC(=S)NC2=O)cc(C)c1O [HBR-3,5DM, (Z)-5-(4-Hydroxy-3,5-dimethylbenzylidene)-2-thioxothiazolidin-4-one] | 23 500 | 48 | 49 | 660 | 98 | 80 | 8.7 | 473 | 401 | non-toxic | 15–20 nm | 10–20 nm | λ abs, wavelength of maximal absorption (FAST [1]; [7]): 499 nm; λ em, wavelength of maximal emission (FAST [1]; [7]): 562 nm; overall brightness relative to the original FAST:HMBR complex (FAST [1]; higher than FAST:HMBR): 2.5 fold
COc1cc(/C=C2\SC(=S)NC2=O)cc(OC)c1O [HBR-3,5DOM, (Z)-5-(4-Hydroxy-3,5-dimethoxybenzylidene)-2-thioxothiazolidin-4-one] | 12 000 | 39 | 31 | 220 | 112 | – | 8.3 | 484 | 407 | non-toxic | 40 nm | 60 nm | Stokes shift (FAST [1]; FAST:fluorogen complex): 82 nm; λ em, wavelength of maximal emission (FAST [1]; FAST:fluorogen complex): 600 nm
Cc1cc(C=C2SC(=S)NC2=O)ccc1O [HMBR, 4-hydroxy-3-methylbenzylidene rhodanine, reference compound] | 10 300 | 45 | – | 300 | – | – | 8.7 | 461 | 401 | – | – | – | –

From PMC5618792, “Dynamic multicolor protein labeling in living cells” (Chemical Science, 2017)
